Measurements reported in ChEMBL document CHEMBL1138752, “2-Pyrazolyl-N(6)-substituted adenosine derivatives as high affinity and selective adenosine A(3) receptor agonists” (J Med Chem, 2004).

Assays:
[1] = molecular target: Adenosine receptors; A1 & A3 (Homo sapiens) (UniProt P30542+P0DMS8); assay: Ratio of binding to adenosine A1 and adenosine A3 receptor; type: protein assay
[2] = molecular target: T1, Adenosine receptor A3 (Homo sapiens, UniProt P0DMS8); assay: biochemical
T1 sequence (P0DMS8 whole entry): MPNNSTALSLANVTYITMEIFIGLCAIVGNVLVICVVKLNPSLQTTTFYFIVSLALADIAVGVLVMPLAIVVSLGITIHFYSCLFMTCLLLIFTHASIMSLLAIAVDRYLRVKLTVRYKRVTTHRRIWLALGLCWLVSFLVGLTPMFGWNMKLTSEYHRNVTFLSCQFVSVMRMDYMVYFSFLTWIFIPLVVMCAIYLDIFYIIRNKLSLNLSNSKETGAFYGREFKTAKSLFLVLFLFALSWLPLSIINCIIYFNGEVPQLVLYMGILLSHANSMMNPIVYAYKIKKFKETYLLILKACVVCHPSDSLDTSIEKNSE
Description: Displacement of [125I]-AB MECA from recombinant human adenosine A3 receptor expressed in HEK cells

[3] = molecular target: T2, Adenosine receptor A1 (Homo sapiens, UniProt P30542); assay: biochemical
T2 sequence (P30542 whole entry): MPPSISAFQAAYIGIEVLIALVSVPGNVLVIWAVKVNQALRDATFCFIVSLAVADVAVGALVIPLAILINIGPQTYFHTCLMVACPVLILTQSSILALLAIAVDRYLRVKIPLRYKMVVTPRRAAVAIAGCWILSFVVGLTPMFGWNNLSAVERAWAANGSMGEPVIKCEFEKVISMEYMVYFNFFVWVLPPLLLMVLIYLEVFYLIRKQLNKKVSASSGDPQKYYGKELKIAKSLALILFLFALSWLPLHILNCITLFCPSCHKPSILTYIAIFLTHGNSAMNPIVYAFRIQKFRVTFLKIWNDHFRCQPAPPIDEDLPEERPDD
Description: Displacement of [3H]CCPA from recombinant human adenosine A1 receptor expressed in CHO cells

[4] = molecular target: Adenosine receptor A2a (Homo sapiens, UniProt P29274); assay: biochemical
Description: Displacement of [3H]CGS-21680 from recombinant human adenosine A2a receptor expressed in HEK cells

[5] = molecular target: Adenosine receptors; A2a & A3 (Homo sapiens) (UniProt P0DMS8+P29274); assay: Ratio of binding to adenosine A2a and adenosine A3 receptor; type: protein assay
Sequence of Adenosine receptors; A2a & A3 (Homo sapiens) (P29274 whole entry, looked up, one chain of several): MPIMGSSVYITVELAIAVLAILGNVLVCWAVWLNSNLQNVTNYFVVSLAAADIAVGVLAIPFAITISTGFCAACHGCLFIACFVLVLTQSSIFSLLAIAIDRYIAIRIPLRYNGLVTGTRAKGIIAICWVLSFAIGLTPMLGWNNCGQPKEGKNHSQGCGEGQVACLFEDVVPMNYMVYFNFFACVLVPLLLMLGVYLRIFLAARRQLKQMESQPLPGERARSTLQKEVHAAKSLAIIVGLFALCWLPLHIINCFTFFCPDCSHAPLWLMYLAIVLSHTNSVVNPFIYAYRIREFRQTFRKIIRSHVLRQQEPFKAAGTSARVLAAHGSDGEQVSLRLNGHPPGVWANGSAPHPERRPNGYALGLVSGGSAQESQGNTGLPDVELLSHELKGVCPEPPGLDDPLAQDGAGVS

Sequence of Adenosine receptor A2a (P29274 whole entry): as the sequence (P29274 whole entry, looked up, one chain of several) above

Selectivity [1]	Ki [2] [nM]	Ki [3] [nM]	Ki [4] [nM]	Selectivity [5]	Compound
> 600	10	> 6000	> 5000	> 500	CNc1nc(-n2cc(-c3ccc(Cl)cc3)cn2)nc2c1ncn2C1O[C@H](CO)[C@@H](O)[C@H]1O (stereo partly specified)
> 1600	3	> 5000	> 5000	> 1600	CNc1nc(-n2cc(-c3ccc4ccccc4n3)cn2)nc2c1ncn2C1O[C@H](CO)[C@@H](O)[C@H]1O (stereo partly specified)
90	41	–	4000	100	CCNc1nc(-n2cc(-c3ccc(OC)cc3)cn2)nc2c1ncn2[C@@H]1O[C@H](CO)[C@@H](O)[C@H]1O
600	6	3800	> 5000	> 800	CNc1nc(-n2cc(-c3ccncc3)cn2)nc2c1ncn2C1O[C@H](CO)[C@@H](O)[C@H]1O (stereo partly specified)
> 200	15	–	> 5000	> 300	CNc1nc(-n2cc(-c3ccc(OC)cc3)cn2)nc2c1ncn2[C@@H]1O[C@H](CO)[C@@H](O)[C@H]1O
24	170	4200	> 3900	> 22	OC[C@H]1OC(n2cnc3c(NCc4cccc(I)c4)nc(-n4cc(-c5ccccn5)cn4)nc32)[C@H](O)[C@@H]1O (stereo partly specified)
1300	2	2600	2500	1200	CNc1nc(-n2cc(-c3nc4ccccc4o3)cn2)nc2c1ncn2C1O[C@H](CO)[C@@H](O)[C@H]1O (stereo partly specified)
> 200	19	> 4000	> 4000	> 200	CCCNC(=O)c1cnn(-c2nc(NC)c3ncn(C4O[C@H](CO)[C@@H](O)[C@H]4O)c3n2)c1 (stereo partly specified)
–	157	2000	4000	25	CNc1nc(-n2cc(C(=O)NCc3ccc(Cl)cc3)cn2)nc2c1ncn2C1O[C@H](CO)[C@@H](O)[C@H]1O (stereo partly specified)
–	> 6000	–	190	–	COc1ccc(-c2cnn(-c3nc(N)c4ncn([C@@H]5O[C@H](CO)[C@@H](O)[C@H]5O)c4n3)c2)cc1
–	148	–	–	–	CCCNc1nc(-c2cnn(Cc3ccccc3)c2)nc2c1ncn2C1O[C@H](CO)[C@@H](O)[C@H]1O (stereo partly specified)
7	109	770	52	< 1	OC[C@H]1OC(n2cnc3c(NCc4cccc(I)c4)nc(-n4cc(-c5nccc6ccccc56)cn4)nc32)[C@H](O)[C@@H]1O (stereo partly specified)
–	49	–	–	–	CCNC(=O)c1cnn(-c2nc(NC)c3ncn(C4O[C@H](CO)[C@@H](O)[C@H]4O)c3n2)c1 (stereo partly specified)
–	–	–	> 5000	–	CNc1nc(-n2cc(-c3ccccn3)cn2)nc2c1ncn2[C@@H]1O[C@H](CO)[C@@H](O)[C@H]1O
> 80	73	–	> 6000	> 80	CNC(=O)c1cnn(-c2nc(NC)c3ncn([C@@H]4O[C@H](CO)[C@@H](O)[C@H]4O)c3n2)c1
–	107	–	1800	–	CCNc1nc(-n2cc(-c3ccccn3)cn2)nc2c1ncn2[C@@H]1O[C@H](CO)[C@@H](O)[C@H]1O
–	> 10000	–	–	–	CNC(=O)c1cnn(-c2nc(N)c3ncn([C@@H]4O[C@H](CO)[C@@H](O)[C@H]4O)c3n2)c1 [REGADENOSON ANHYDROUS]
13	97	1300	> 5000	> 50	CNc1nc(-c2cnn(Cc3ccccc3)c2)nc2c1ncn2C1O[C@H](CO)[C@@H](O)[C@H]1O (stereo partly specified)
900	2	1800	4100	2000	CNc1nc(-n2cc(-c3cccnc3)cn2)nc2c1ncn2C1O[C@H](CO)[C@@H](O)[C@H]1O (stereo partly specified)
45	65	3000	3300	50	CCCNc1nc(-n2cc(-c3ccc(OC)cc3)cn2)nc2c1ncn2C1O[C@H](CO)[C@@H](O)[C@H]1O (stereo partly specified)
–	> 10000	–	1.5	–	Nc1nc(-c2cnn(Cc3ccccc3)c2)nc2c1ncn2[C@@H]1O[C@H](CO)[C@@H](O)[C@H]1O
14	320	4500	4000	10	COc1ccc(-c2cnn(-c3nc(NCc4cccc(I)c4)c4ncn(C5O[C@H](CO)[C@@H](O)[C@H]5O)c4n3)c2)cc1 (stereo partly specified)
